From patent US8173360B2, “Cell death inhibitor” (Takeda Pharmaceutical Company Limited, priority 2002, dated 2012) come the findings set out here.

One assay deals with T1, rat MIF (Rattus norvegicus, UniProt P30904).
T1 construct: the region encoding MIF was amplified from the complementary DNA (cDNA) library of rat and mouse brains; made in house; host or cells: Escherichia coli BL21 (DE3)
Nature of the assay: Binding to immobilized rat MIF by surface plasmon resonance (BIACORE 3000). To be noted: 10 μM in PBS, rat MIF immobilized on sensor chip CM5. On the procedure: The binding of rat MIF obtained in REFERENCE EXAMPLE 6 to Compound 1 obtained in REFERENCE EXAMPLE 1 was analyzed using BIACORE 3000 (manufactured by Biacore).
Rat MIF was immobilized on a sensor chip CM5 (manufactured by Biacore). Then, phosphate buffered saline (PBS) containing 10 μM of Compound 1 was flown over the sensor chip and changes in the surface plasmon resonance signal were monitored as the binding of the compound to rat MIF.
Rat MIF obtained in REFERENCE EXAMPLE 6 was immobilized on a sensor chip CM5 (manufactured by Biacore Co., Ltd.). Thereafter, phosphate buffered saline (PBS) containing 10 μM of 3-[2-(4-oxo-4H-1,3-benzothiazin-2-yl)-4-pyridyl]propionic acid (the compound of EXAMPLE 308 described in WO 03/020719) was flown over the sensor chip and changes in surface plasmon resonance signal were monitored as the binding of the compound to rat MIF.

Assay [1] has as its system primary cardiomyocytes derived from rat neonates. Nature of the assay: Inhibition of serum depletion-induced myocardial cell death (WST-8 viable cell count). It is filed as cell-based. The text has this: Neonates (within one day after birth) were obtained from pregnant Wistar rats purchased from Charles River Japan, Inc. and anesthetized with ether. After sterilization with 70% ethanol, the heart was removed with forceps. After washing with phosphate buffered saline (manufactured by Takara Co., Ltd., T900), the heart removed was minced with surgical scissors. The pieces of tissue were washed 4 or 5 times with phosphate buffered saline to remove most of non-cardiomyocytes derived from blood. To the pieces of tissue corresponding to 10 neonates, 5 ml of an enzyme solution [which is a solution of trypsin (1.25 mg) (manufactured by Difco) and collagenase (0.25 mg) (manufactured by Sigma) in phosphate buffer (1 ml)] was added. The mixture was stirred for 15 minutes with a stirrer while maintaining at 37° C. After 2.5 ml of the enzyme solution was replenished, the mixture was stirred for further 15 minutes, and this procedure was repeated twice. Subsequently, Medium 199 (manufactured by Gibco) containing 10% fetal cow serum (manufactured Biowicker, Inc.) was added to the mixture in a half volume of the enzyme solution to terminate the enzymatic reaction. After filtering through a cell strainer (manufactured by Falcon), the mixture was centrifuged at 400×g for 5 minutes to collect the cells.
The cells were then recovered, filtered through a cell strainer and centrifuged at 400×g for 5 minutes to collect primary cardiomyocytes derived from rat neonates.
Next, the primary cardiomyocytes derived from rat neonates (corresponding 10 neonates) were suspended in 2 ml of a hypotonic solution [solution obtained by dissolving NH4Cl (8.29 g), KHCO3 (1.0 g) and EDTA/2Na (ethylenediaminetetraacetic acid disodium; manufactured by Dojin Chemical Laboratory) (37 mg) in water (1 L)]. The suspension was allowed to stand for 3 minutes to disrupt erythrocytes. To the suspension 10 ml of Medium 199 containing 10% fetal cow serum was added, and the mixture was centrifuged at 400×g for 5 minutes to collect the primary cardiomyocytes derived from rat neonates. […] An aliquot of the cardiomyocytes suspension obtained was taken out and 0.3% trypan blue was added thereto. The mixture was gently stirred and the count of cardiomyocytes was counted with a hemocytometer.
Incubation was continued for further 4 days to induce cell death. […]
The mean value (±SD) in the minimum effective concentration of Compound 1 required for inhibiting the cell death was 0.015±0.011 μM. The concentration of Compound 1 required for increasing the mean cell count by 30% when compared to the cell count without the addition of Compound 1 was determined to be the minimum effective concentration. […]

The test system is the same in assay [2]. To be noted: simvastatin 0.3 μM or atorvastatin 1 μM, 3 days. On the procedure: The primary cardiomyocytes derived from rat neonates obtained in EXPERIMENTAL EXAMPLE 2 were suspended in Medium 199 containing 10% fetal cow serum in 6×10^5 cells/ml, and the suspension was seeded on a 96-well plate in 0.1 mlwell, followed by incubation for a day in a CO2 incubator set at 37° C. and 5% CO2. After stirring with a micromixer (manufactured by Taiyo Kagaku Kogyo Co., Ltd.), the medium was replaced 3 times with serum-free Medium 199 to remove serum. […] Thereafter, fetal cow serum was added thereto to become 10%. After further incubation in a CO2 incubator set at 37° C. and 5% CO2 for about 17 hours, the viable cell count was determined using a cell count assay kit (manufactured by Dojin Chemical Laboratory) in which WST-8 was used as a chromogen, thereby to examine the inhibitory activity of myocardial cell death induced by the statin. The experiment described above was carried out independently in 3 runs. The viable cell count in each of the experimental groups was named the mean value (±SD) of the viable cell counts in each experimental group, when the viable cell count in the group with no statin added was made 1.

Turning to `O=c1nc(-c2ccccn2)sc2ccccc12` [Compound 1, 2-(2-Pyridyl)-4H-1,3-benzothiazin-4-one], the “binding of the compound to rat MIF (changes in surface plasmon resonance signal)” value on rat MIF was “binds to MIF”. For the same compound, the “minimum effective concentration required for inhibiting the cell death” value in assay [1] (concentration increasing mean cell count by 30% vs no compound, serum-free 4 days, mean ±SD, 3 runs) worked out at 0.015 ± 0.011 µM. Also, in assay [1] (serum depletion, 4 days, WST-8 viable cell count), the “myocardial cell death inhibitory activity” value is reported as “exhibit the activity of inhibiting myocardial cell death”. Moreover, in assay [2], the “inhibition of myocardial cell death induced by statin” value is given as “exhibits the activity of inhibiting myocardial cell death induced by the HMG-CoA reductase inhibitor”.
